Results reported in article PMC12396409, “Screening and hit evaluation of a microbial metabolite library against the pathogenic Plasmodium falciparum and Toxoplasma gondii parasites” (International Journal for Parasitology: Drugs and Drug …, 2025).
Like-named read-outs stand apart in the source and are kept apart here.

Key:
[1] = system: T. gondii RH strain (RH-Tub-eYFP) tachyzoites; assay: microbe, parasite or virus in culture; assay type: cell-based, Toxoplasma gondii; settings: 72 h; for percent parasite growth at 2 µg/mL: Toxoplasma gondii
[2] = system: P. falciparum 3D7 parasites; assay: P. falciparum growth inhibition assay, 1-cycle (72 h treatment), SYBR DNA staining (library screen at 2 μg/mL and dose-response); assay type: cell-based, Plasmodium falciparum; settings: for activity at 2 µg/mL: Plasmodium falciparum, 3D7, 72 h
[3] = system: P. falciparum 3D7 parasites; assay: P. falciparum growth inhibition assay, 2-cycle (120 h treatment), delayed-death screen and dose-response; assay type: cell-based, Plasmodium falciparum; settings: for activity at 2 µg/mL: Plasmodium falciparum, 3D7, 120 h
[4] = T. gondii, parasite screen 2 μg/mL, % growth, replicate 1
[5] = T. gondii, parasite screen 2 μg/mL, % growth, replicate 2
[6] = P. falciparum, 72 h, parasite screen 2 μg/mL, % growth, replicate 1
[7] = P. falciparum, 72 h, parasite screen 2 μg/mL, % growth, replicate 2
[8] = P. falciparum, 120 h, parasite screen 2 μg/mL, % growth, replicate 1
[9] = P. falciparum, 120 h, parasite screen 2 μg/mL, % growth, replicate 2
[10] = T. gondii, parasite screen at 2 μg/mL, % growth, replicate 1
[11] = T. gondii, parasite screen at 2 μg/mL, % growth, replicate 2
[12] = P. falciparum 3D7, 72 h, parasite screen at 2 μg/mL, % growth, replicate 1
[13] = P. falciparum 3D7, 72 h, parasite screen at 2 μg/mL, % growth, replicate 2
[14] = P. falciparum 3D7, 120 h, parasite screen at 2 μg/mL, % growth, replicate 1
[15] = P. falciparum 3D7, 120 h, parasite screen at 2 μg/mL, % growth, replicate 2
[16] = library screen at 2 μg/mL, % growth, replicate 1
[17] = library screen at 2 μg/mL, % growth, replicate 2
[18] = library screen at 2 μg/mL, 72 h, % growth, replicate 1
[19] = library screen at 2 μg/mL, 72 h, % growth, replicate 2
[20] = library screen at 2 μg/mL, 120 h, % growth, replicate 1
[21] = library screen at 2 μg/mL, 120 h, % growth, replicate 2
[22] = T. gondii RH, library screen at 2 μg/mL, % growth, replicate 1
[23] = T. gondii RH, library screen at 2 μg/mL, % growth, replicate 2
[24] = P. falciparum 3D7, 72 h, library screen at 2 μg/mL, % growth, replicate 1
[25] = P. falciparum 3D7, 72 h, library screen at 2 μg/mL, % growth, replicate 2
[26] = P. falciparum 3D7, 120 h, library screen at 2 μg/mL, % growth, replicate 1
[27] = P. falciparum 3D7, 120 h, library screen at 2 μg/mL, % growth, replicate 2
[28] = T. gondii, screen at 2 μg/mL, replicate 1
[29] = T. gondii, screen at 2 μg/mL, replicate 2
[30] = P. falciparum, 72 h, screen at 2 μg/mL, replicate 1
[31] = P. falciparum, 72 h, screen at 2 μg/mL, replicate 2
[32] = P. falciparum, 120 h, screen at 2 μg/mL, replicate 1
[33] = P. falciparum, 120 h, screen at 2 μg/mL, replicate 2
[34] = T. gondii, 2 μg/mL, values are growth (% of control)

CCO[C@@H]1[C@@H](OC)[C@H](C)O[C@@H](O[C@@H]2C[C@H]3CC[C@@H]4[C@@H](C=C5C(=O)[C@H](C)[C@@H](O)CCC[C@H](CC)OC(=O)C[C@H]54)[C@@H]3C2)[C@@H]1OC
Tg_72h_%Growth_Rep1 [1, 4]: 110.35%
Tg_72h_%Growth_Rep2 [1, 5]: 84.17%
Pf_72h_%Growth_Rep1 [2, 6]: 35.55%
Pf_72h_%Growth_Rep2 [2, 7]: 25.61%
Pf_120h_%Growth_Rep1 [3, 8]: 31.22%
Pf_120h_%Growth_Rep2 [3, 9]: 24.15%

C/C(=C\c1csc(C)n1)[C@@H]1C[C@@H]2O[C@@H]2CCC[C@H](C)[C@H](O)[C@@H](C)C(=O)C(C)(C)[C@@H](O)CC(=O)O1 [Epothilone A]
percent parasite growth at 2 µg/mL ([1]; library screen at 2 μg/mL, % growth, replicate 1, read-out: Tg_72h_%Growth_Rep1): 2.49%
percent parasite growth at 2 µg/mL ([1]; library screen at 2 μg/mL, % growth, replicate 2, read-out: Tg_72h_%Growth_Rep2): 2.65%
activity at 2 µg/mL ([2]; library screen at 2 μg/mL, 72 h, % growth, replicate 1, read-out: Pf_72h_%Growth_Rep1): 5.34%
activity at 2 µg/mL ([2]; library screen at 2 μg/mL, 72 h, % growth, replicate 2, read-out: Pf_72h_%Growth_Rep2): 6.86%
activity at 2 µg/mL ([3]; library screen at 2 μg/mL, 120 h, % growth, replicate 1, read-out: Pf_120h_%Growth_Rep1): -6.26%
activity at 2 µg/mL ([3]; library screen at 2 μg/mL, 120 h, % growth, replicate 2, read-out: Pf_120h_%Growth_Rep2): 10.7%

CC[C@H]1C[C@@H]2CC[C@@H](O2)[C@@H](C)C(=O)O[C@H](C)C[C@H]2CC[C@H](O2)[C@H](C)C(=O)O[C@@H](C)C[C@@H]2CC[C@@H](O2)[C@@H](C)C(=O)O[C@H](C)C[C@H]2CC[C@H](O2)[C@H](C)C(=O)O1 [BIA-M1055]
Tg_72h_%Growth_Rep1 [1, 10]: 3.56%
Tg_72h_%Growth_Rep2 [1, 11]: 1.37%
Pf_72h_%Growth_Rep1 [2, 12]: 7.23%
Pf_72h_%Growth_Rep2 [2, 13]: 6.66%
Pf_120h_%Growth_Rep1 [3, 14]: 15.60%
Pf_120h_%Growth_Rep2 [3, 15]: 21.38%

CC[C@H]1OC(=O)[C@H](C)[C@@H](O[C@H]2C[C@@](C)(OC)[C@@H](O)[C@H](C)O2)[C@H](C)[C@@H](O[C@@H]2O[C@H](C)C[C@H]([N+](C)(C)[O-])[C@H]2O)[C@](C)(O)C[C@@H](C)C(=O)[C@H](C)[C@@H](O)[C@]1(C)O [Erythromycin A N-oxide]
Tg_72h_%Growth_Rep1 [1, 16]: 107.95%
Tg_72h_%Growth_Rep2 [1, 17]: 98.15%
Pf_72h_%Growth_Rep1 [2, 18]: 82.02%
Pf_72h_%Growth_Rep2 [2, 19]: 85.53%
Pf_120h_%Growth_Rep1 [3, 20]: 82.07%
Pf_120h_%Growth_Rep2 [3, 21]: 80.30%

Cn1c2ccccc2c(=O)c2c(O)cc3c(c21)C=CC(C)(C)O3 [BIA-N1949]
Tg_72h_%Growth_Rep1 [1, 10]: 111.30%
Tg_72h_%Growth_Rep2 [1, 11]: 95.22%
Pf_72h_%Growth_Rep1 [2, 12]: 90.51%
Pf_72h_%Growth_Rep2 [2, 13]: 117.30%
Pf_120h_%Growth_Rep1 [3, 14]: 85.11%
Pf_120h_%Growth_Rep2 [3, 15]: 95.19%

COC1C=CC=C(C)C(=O)NC2=CC(=O)C=C(C2=O)C(OC)C(C)CC(OC)C(OC)C(C)C=C(C)C1OC(N)=O (stereo not drawn) [BIA-H1036]
Tg_72h_%Growth_Rep1 [1, 22]: 133.21%
Tg_72h_%Growth_Rep2 [1, 23]: 80.30%
Pf_72h_%Growth_Rep1 [2, 24]: 51.92%
Pf_72h_%Growth_Rep2 [2, 25]: 44.34%
Pf_120h_%Growth_Rep1 [3, 26]: 68.16%
Pf_120h_%Growth_Rep2 [3, 27]: 41.77%

COC(=O)C1(O)CC2OC1(C)n1c3ccccc3c3c4c(c5c6ccccc6n2c5c31)CNC4=O (stereo not drawn) [BIA-K1225]
Tg_72h_%Growth_Rep1 [1, 22]: -1.01%
Tg_72h_%Growth_Rep2 [1, 23]: 0.85%
Pf_72h_%Growth_Rep1 [2, 24]: 4.93%
Pf_72h_%Growth_Rep2 [2, 25]: 0.48%
Pf_120h_%Growth_Rep1 [3, 26]: 29.46%
Pf_120h_%Growth_Rep2 [3, 27]: 12.07%

C/C1=C\[C@H](C)C[C@H](C)[C@H](Cc2cnco2)OC(=O)/C(C)=C/CC[C@H](C)[C@H](Cc2cnco2)OC1=O [Conglobatin B]
Tg_72h_%Growth_Rep1 [1, 28]: 184.82%
Tg_72h_%Growth_Rep2 [1, 29]: 99.16%
Pf_72h_%Growth_Rep1 [2, 30]: 81.21%
Pf_72h_%Growth_Rep2 [2, 31]: 81.29%
Pf_120h_%Growth_Rep1 [3, 32]: 80.47%
Pf_120h_%Growth_Rep2 [3, 33]: 86.62%

CN1CCC2(c3cccc4c3NC3N(C)CCC43c3cccc4c3NC3N(C)CCC43C34CCN(C)C3Nc3c(C56CCN(C)C5Nc5ccccc56)cccc34)c3ccccc3NC12 (stereo not drawn) [Psychotridine]
Mean ([1]; T. gondii, 2 μg/mL, mean of both replicates, growth (% of control)): 39.57
Replicate 1 [1, 34]: 17.15
Replicate 2 [1, 34]: 61.99
Tg_72h_%Growth_Rep1 [1, 4]: 17.15%
Tg_72h_%Growth_Rep2 [1, 5]: 61.99%
Pf_72h_%Growth_Rep1 [2, 6]: 4.01%
Pf_72h_%Growth_Rep2 [2, 7]: -3.25%
Pf_120h_%Growth_Rep1 [3, 8]: 15.63%
Pf_120h_%Growth_Rep2 [3, 9]: 4.30%

C[C@@]12CCC[C@@]34CCC[C@@H](C=C[C@H]1CC3)N42 [Porantherine]
Tg_72h_%Growth_Rep1 [1, 4]: 90.85%
Tg_72h_%Growth_Rep2 [1, 5]: 74.43%
Pf_72h_%Growth_Rep1 [2, 6]: 85.43%
Pf_72h_%Growth_Rep2 [2, 7]: 115.67%
Pf_120h_%Growth_Rep1 [3, 8]: 101.33%
Pf_120h_%Growth_Rep2 [3, 9]: 98.35%

C=C1CC[C@H]2C(C)(C)CCC[C@]2(C)[C@H]1C[C@@]12C[C@H]3C(=O)N[C@@H](CC(C)C)C(=O)N3[C@@H]1Nc1ccccc12 [Drimentine A]
Tg_72h_%Growth_Rep1 [1, 16]: 101.23%
Tg_72h_%Growth_Rep2 [1, 17]: 80.15%
Pf_72h_%Growth_Rep1 [2, 18]: 31.67%
Pf_72h_%Growth_Rep2 [2, 19]: 47.87%
Pf_120h_%Growth_Rep1 [3, 20]: 26.95%
Pf_120h_%Growth_Rep2 [3, 21]: 40.06%

CO[C@H]1[C@@H](OC)C[C@H](C)[C@@H](OC)c2cc(O)cc(c2O)NC(=O)/C(C)=C/C=C\[C@H](OC)[C@@H](OC(N)=O)/C(C)=C/[C@@H]1C [TAN 420E]
Tg_72h_%Growth_Rep1 [1, 4]: 60.21%
Tg_72h_%Growth_Rep2 [1, 5]: 64.79%
Pf_72h_%Growth_Rep1 [2, 6]: 3.51%
Pf_72h_%Growth_Rep2 [2, 7]: -0.34%
Pf_120h_%Growth_Rep1 [3, 8]: 36.47%
Pf_120h_%Growth_Rep2 [3, 9]: 7.03%

NC(=O)C#CC(N)=O [Cellocidin]
Tg_72h_%Growth_Rep1 [1, 28]: 79.59%
Tg_72h_%Growth_Rep2 [1, 29]: 92.91%
Pf_72h_%Growth_Rep1 [2, 30]: 102.17%
Pf_72h_%Growth_Rep2 [2, 31]: 89.58%
Pf_120h_%Growth_Rep1 [3, 32]: 151.65%
Pf_120h_%Growth_Rep2 [3, 33]: 95.14%

CO[C@@H]1[C@@H](O[C@@H]2O[C@H](C)[C@@H](O[C@H]3C[C@@](C)(O)[C@@H](O)[C@H](C)O3)[C@H](N(C)C)[C@H]2O)[C@@H](CC=O)C[C@@H](C)[C@@H](O[C@H]2CC[C@H](N(C)C)[C@@H](C)O2)/C=C/C=C/C[C@@H](C)OC(=O)C[C@H]1O [Spiramycin I, reference compound]
Tg_72h_%Growth_Rep1 [1, 4]: 20.85%
Tg_72h_%Growth_Rep2 [1, 5]: 24.90%
1) Growth (%) at 72 h ([2]; P. falciparum, 2 μg/mL, 72 h): 71.72%
Pf_72h_%Growth_Rep1 [2, 6]: 60.09%
Pf_72h_%Growth_Rep2 [2, 7]: 83.34%
2) Growth (%) at 120 h ([3]; P. falciparum, 2 μg/mL, 120 h): 11.98%
Pf_120h_%Growth_Rep1 [3, 8]: 15.80%
Pf_120h_%Growth_Rep2 [3, 9]: 8.16%
3) Fold change (72 h/120 h) ([3]; P. falciparum, growth at 72 h / growth at 120 h, 2 μg/mL): 6.0

CCCCCCC(C)C/C(C)=C\C(/C=C(C)/C=C/C(O)C(C)(C)c1cc(O)c([C@@H]2O[C@H](CO)C[C@H](O)[C@H]2O)c(=O)o1)CO (stereo partly drawn) [Fusapyrone]
Tg_72h_%Growth_Rep1 [1, 16]: 113.82%
Tg_72h_%Growth_Rep2 [1, 17]: 93.81%
Pf_72h_%Growth_Rep1 [2, 18]: 90.44%
Pf_72h_%Growth_Rep2 [2, 19]: 35.77%
Pf_120h_%Growth_Rep1 [3, 20]: 92.76%
Pf_120h_%Growth_Rep2 [3, 21]: 105.39%

C=C1C(=O)O[C@H]2C(=O)O[C@H](CCCCCCCC)[C@@H]12 [Avenaciolide]
Tg_72h_%Growth_Rep1 [1, 16]: 102.05%
Tg_72h_%Growth_Rep2 [1, 17]: 95.83%
Pf_72h_%Growth_Rep1 [2, 18]: 79.34%
Pf_72h_%Growth_Rep2 [2, 19]: 78.44%
Pf_120h_%Growth_Rep1 [3, 20]: 53.72%
Pf_120h_%Growth_Rep2 [3, 21]: 80.39%
